Source: the NIST ThermoML archive (doi:10.1016/j.tca.2008.06.010)
Numbers after ± are expanded uncertainties.

Assay: molar heat capacity at constant pressure
Conditions: 101.33 kPa, Crystal, Relaxation time

[Nb+5].[Nb+5].[O-2].[O-2].[O-2].[O-2].[O-2].[O-2].[O-2].[Sr+2].[Sr+2] [niobium strontium oxide (Nb2Sr2O7)]
Conditions | molar heat capacity at constant pressure [J/K/mol]
2 K | 0.006 ± 0.001
2.1 K | 0.005 ± 0.001
2.2 K | 0.006 ± 0.001
2.4 K | 0.007 ± 0.001
2.5 K | 0.008 ± 0.001
2.7 K | 0.009 ± 0.001
2.9 K | 0.01 ± 0.001
3.1 K | 0.012 ± 0.001
3.2 K | 0.015 ± 0.001
3.5 K | 0.017 ± 0.001
3.7 K | 0.02 ± 0.001
3.9 K | 0.024 ± 0.001
4.2 K | 0.03 ± 0.001
4.4 K | 0.035 ± 0.001
4.7 K | 0.043 ± 0.001
5 K | 0.053 ± 0.001
5.4 K | 0.064 ± 0.002
5.7 K | 0.079 ± 0.002
6.1 K | 0.097 ± 0.002
6.5 K | 0.12 ± 0.01
6.9 K | 0.15 ± 0.01
7.4 K | 0.19 ± 0.01
7.9 K | 0.23 ± 0.01
8.4 K | 0.28 ± 0.01
8.9 K | 0.35 ± 0.01
9.5 K | 0.43 ± 0.01
10.1 K | 0.53 ± 0.01
10.8 K | 0.65 ± 0.01
11.5 K | 0.8 ± 0.02
12.2 K | 0.99 ± 0.02
13 K | 1.21 ± 0.03
13.9 K | 1.48 ± 0.03
14.8 K | 1.82 ± 0.04
15.7 K | 2.2 ± 0.05
16.7 K | 2.69 ± 0.06
17.8 K | 3.28 ± 0.07
19 K | 3.97 ± 0.08
20.2 K | 4.78 ± 0.1
21.5 K | 5.72 ± 0.12
22.9 K | 6.83 ± 0.14
24.3 K | 8.09 ± 0.16
25.9 K | 9.56 ± 0.19
27.6 K | 11.22 ± 0.23
29.3 K | 13.09 ± 0.26
31.2 K | 15.16 ± 0.3
33.3 K | 17.47 ± 0.35
35.4 K | 20.05 ± 0.4
37.7 K | 22.84 ± 0.46
40.2 K | 25.86 ± 0.52
42.7 K | 29.26 ± 0.59
45.5 K | 32.91 ± 0.66
48.4 K | 36.66 ± 0.73
51.6 K | 40.57 ± 0.81
54.9 K | 44.95 ± 0.9
58.4 K | 49.55 ± 0.99
62.2 K | 54.39 ± 1.1
66.2 K | 59.43 ± 1.2
70.4 K | 64.72 ± 1.3
75 K | 70.3 ± 1.4
79.8 K | 76.11 ± 1.5
84.9 K | 82.05 ± 1.6
90.4 K | 88.37 ± 1.8
96.2 K | 95.08 ± 1.9
102.4 K | 101.57 ± 2
115.9 K | 115.3 ± 2.3
123.4 K | 122.51 ± 2.5
131.3 K | 129.76 ± 2.6
